Non-standard residues stand in square brackets, D forms with d. Residues, ends and D or L forms follow the SMILES beside them. *: point of attachment. pY = N[C@@H](Cc1ccc(OP(=O)(O)O)cc1)C(=O)O; pT = C[C@@H](OP(=O)(O)O)[C@H](N)C(=O)O; Cbz = O=C(OCc1ccccc1)*; CH2F = FC*
Assays:
[1] = tested on: HIV-1 NL4-3 in Raji-CD4-DCIR cells; experiment: HIV-1 binding/entry assay in Raji-CD4-DCIR cells (cell-associated p24 ELISA); type: cell-based; conditions: for HIV-1 binding/entry: cells pretreated with inhibitor 10 min, pulsed with NL4-3 60 min, result in words; for Binding/entry: Table 3, pharmacological inhibitors, symbols not defined
Description: FIG. 2A: Raji-CD4 and Raji-CD4-DCIR cells were either left untreated or treated with SSG (100 μg/ml) for 10 min at 37° C. Thereafter, cells were pulsed with NL4-3 for 60 min. After three washes with PBS to remove non-adsorbed virus, cell-associated virus was quantified by measuring the p24 content. Data shown correspond to the means±SD of triplicate samples from three combined independent experiments. The asterisk denotes statistically significant data (*, P<0.05; **, P<0.01). FIG. 2B: Cells were either left untransfected or transfected with a sense or antisense oligonucleotide specific for the signalling protein of interest. Next, cells were pulsed with NL4-3 for 60 min. After three washes with PBS to eliminate unbound virus, cell-associated virus was quantified by measuring the p24 content. Data shown correspond to the means±SD of triplicate samples from three combined independent experiments. The asterisk denotes statistically significant data (*, P<0.05; **, P<0.01). After gene silencing, the diminution of the targeted protein was verified by western blots, provided as an insert for each graph.
Where indicated, parental Raji-CD4 cells (DCIR-negative) or Raji-CD4-DCIR transfectants (1×10^6) were pretreated with the indicated amount of a pharmacological inhibitor for 10 min or transfected with sense or antisense oligonucleotides as described below. Cells were then pulsed with NL4-3 (100 ng of p24) for 60 min at 37° C. Next the virus-cell mixture was washed 3 times with PBS to remove unbound virus and resuspended in PBS containing 1% BSA. To assess binding/entry, the p24 content was determined by our in-house ELISA assay^33.
Raji-CD4 and Raji-CD4-DCIR cells (1×10^6 cells) were washed with OptiMEM (Invitrogen Life Technologies) without serum and antibiotics. The phosphorothioate oligodeoxynucleotides (Listed in Table 1) (Invitrogen Life Technologies) were transfected at a final concentration of 10 μM/well^35 using Oligofectamine according to the manufacturer's instructions (Invitrogen Life Technologies). Silencing efficiency was monitored by western blot analysis.

[2] = tested on: HIV-1 NL4-3 in Raji-CD4-DCIR cells; experiment: HIV-1 infection assay in Raji-CD4-DCIR cells, real-time PCR of spliced Tat mRNA; type: cell-based; conditions: Table 3, pharmacological inhibitors; symbols not defined
Description: FIG. 6A: Raji-CD4 and Raji-CD4-DCIR were either left untreated or preincubated with tyrosine phosphatase inhibitor SSG (100 μg/ml); Syk inhibitor piceatannol (10 μM); Src inhibitor PP2 (10 μM); classical PKC inhibitor Gö6976 (1 μM); MAPK p38 inhibitor SB203580 (2 μM), MAP kinase inhibitor PD98059 ([…]) for 10 min. FIG. 6B: Raji-CD4 and Raji-CD4-DCIR were treated with Oligofectamine and then either left untreated or exposed to a sense or an antisense oligonucleotide against different signalling proteins during 5 hours. Next, cells were exposed to NL4-3 for 24 hours. Virus infection was determined by real-time PCR of spliced Tat mRNA. Data shown correspond to the means±SD of triplicate samples from three independent experiments. The asterisk denotes statistically significant data (*, P<0.05; ***, P<0.001).
For the infection assay performed before measuring Tat mRNA, Raji-CD4 and Raji-CD4-DCIR cells were treated with the indicated inhibitor or transfected with the indicated oligonucleotide (as described below). Cells were then pulsed with NL4-3 during 24 hours. […] The expression level of Tat mRNA was measured by real-time PCR, as described below.
Expression levels of TAT splice transcripts were determined using a Rotor-Gene™ system (Corbett Life Science). […] After elution, the amount and quality of RNA was assessed by measuring the absorbance at 260 and 280 nm. […]

[3] = tested on: CD4+ T cells; experiment: Cell toxicity / viability of CD4+ T cells; type: cell-based, human; conditions: HIV-1-infected CD4+ T cells; data not shown
[4] = tested on: DCIR expression in CD4+ T cells; experiment: HIV-1-mediated induction of DCIR expression in CD4+ T cells (flow cytometry); type: cell-based, human; conditions: for HIV-1-mediated DCIR expression: cells pre-treated before virus infection, 3 days, result in words
Description: Mitogen-activated CD4^+ T cells (1×10^6) were first either left untreated or treated for 1 h with the caspase inhibitor Z-VAD-FMK (50 nM), after which HIV-1 was added (100 ng of p24), where indicated. DCIR expression was monitored 3 days later by flow cytometry. Data shown represent the means±SD of triplicate samples from three independent experiments.
Cells (1×10^6) were first either left untreated or treated for 1 h with NAC, after which HIV-1 (100 ng of p24) was added. DCIR expression was monitored 3 days later by flow cytometry. Expression of DCIR is shown as a dotted line, whereas the continuous line represents staining obtained with an isotype-matched irrelevant control Ab. Data shown correspond to a single experiment representative of 3 independent experiments.
Cell surface expression of DCIR was monitored by flow cytometric analysis (Epics ELITE ESP, Coulter Electronics, Burlington, Canada). Cells (1×10^6 cells) were incubated for 30 min with a pool of human serum to block the unspecific binding. After washing, the cells were incubated with PE-labeled anti-DCIR (0.25 μg) for 45 min at 4° C. and then washed twice with PBS and 0.5% BSA. Non-specific staining was determined by using an isotype-matched irrelevant control antibody. After two final washes with PBS, cells were fixed in 2% paraformaldehyde for 30 min and analyzed.

[5] = tested on: DCIR expression in CD4+ T cells; experiment: DCIR expression in CD4+ T cells after H2O2 or other apoptosis inducers (flow cytometry); type: cell-based, human
Description: Next, DCIR expression was assessed by flow cytometry. Data shown represent the ratio of DCIR expression over basal expression. The ratio is calculated from the means±SD of triplicate samples from three independent experiments. […] FIG. 16A: […] Expression of DCIR is shown as a dotted line, whereas the continuous line represents staining obtained with an isotype-matched irrelevant control Ab. Data shown correspond to a single experiment representative of 3 independent experiments. FIG. 16B: […] Thereafter, DCIR surface expression and caspase activation were monitored by flow cytometric analysis using a double-staining method consisting of FITC-VAD-FMK followed by the R-PE-conjugated anti-DCIR. Data shown correspond to a single experiment representative of 4 independent experiments. Cell surface expression of DCIR was monitored by flow cytometric analysis (Epics ELITE ESP, Coulter Electronics, Burlington, Canada). […] After washing, the cells were incubated with PE-labeled anti-DCIR (0.25 μg) for 45 min at 4° C. and then washed twice with PBS and 0.5% BSA. Non-specific staining was determined by using an isotype-matched irrelevant control antibody. After two final washes with PBS, cells were fixed in 2% paraformaldehyde for 30 min and analyzed.

[6] = tested on: HIV-1 NL4-3balenv in IM-MDDCs; experiment: HIV-1 binding/entry in IM-MDDCs transfected with ITIM peptides (p24); type: cell-based; conditions: peptides inserted with Pro-Ject, NL4-3balenv 60 min; result in words
Description: (§1) FIG. 7A: Raji-CD4 cells were transduced with a retroviral vector expressing either a wild-type form of DCIR, a T6F mutant of DCIR, or a Y7F mutant of DCIR. Surface expression level of DCIR was assessed by flow cytometry using a combination of PE-labelled anti-DCIR antibody (dotted lines) and a control isotype-matched antibody (continuous lines). […] FIG. 7B: For the virus binding/entry assay shown in the left panel, the indicated cell lines were exposed to NL4-3. For the infection assay shown in the right panel, the same cells were exposed to NL4-3 for 2 hours at 37° C., and then maintained in culture for 9 days. FIG. 7C: IM-MDDCs were treated with Pro-Ject only, with a control peptide or an ITIM peptide, either not phosphorylated or phosphorylated on the tyrosine or threonine residue, during 5 min at 37° C. Next, cells were pulsed with NL4-3balenv for 60 min at 37° C. and washed extensively before measuring the p24 content (left panel). […] Cell-free culture supernatants were quantified by measuring the p24 content. […]
(§2) For assessing binding/entry, IM-MDDCs (3×10^5 cells in a final volume of 300 μl) transfected with one of the ITIM peptides were exposed to NL4-3balenv (30 ng of p24) for 60 min at 37° C. […] The p24 content was determined by ELISA. As for susceptibility of IM-MDDCs to HIV-1 infection, it was assessed by initially exposing 3×10^5 cells to NL4-3balenv (30 ng) for 2 hours at 37° C. […]

[7] = tested on: HIV-1 NL4-3balenv in IM-MDDCs; experiment: HIV-1 infection of IM-MDDCs transfected with ITIM peptides (p24 in supernatants); type: cell-based; conditions: peptides inserted with Pro-Ject, NL4-3balenv 2 hours, culture up to 9 days; result in words
Description: as §1, §2

For `Cn1c2ccccc2c2c3c(c4c5ccccc5n(CCC#N)c4c21)CNC3=O` [Go6976], the HIV-1 binding/entry [1] was “play a role”.
With `O=S(=O)(NCCNC/C=C/c1ccc(Br)cc1)c1cccc2cnccc12` [H89] the Binding/entry [1] was “Ø”, the HIV-1 binding/entry [1] was “not participating” and the Infection [2] was “Ø”.
For `C/C(O)=C(\C#N)C(=O)Nc1cc(Br)ccc1Br` [LFM-A13], the Binding/entry [1] was “Ø”, the HIV-1 binding/entry [1] was “not involved” and the Infection [2] was “Ø”.
In the case of `CC(=O)N[C@@H](CS)C(=O)O` [NAC, N-acetyl-L-cystein], the cell toxicity [3] is reported as “no toxicity”, the “HIV-1-mediated DCIR expression” value [4] is reported as “inhibited but not completely” and the “HIV-1-induced expression of DCIR on the surface of CD4+ T cells” value ([4]; virus-infected cells also treated with NAC, n=3, 16.2±3.4% in HIV-1-infected cells without NAC) is reported as 6.7±1.7%.
`COc1cccc(-c2cc(=O)c3ccccc3o2)c1N` [PD98059] was tested, and the HIV-1 binding/entry [1] was “significant decrease”.
With `CC(C)(C)n1nc(-c2ccc(Cl)cc2)c2c(N)ncnc21` [PP2] the HIV-1 binding/entry [1] was “decreased”.
For `Oc1cc(O)cc(/C=C/c2ccc(O)c(O)c2)c1` [Pic, piceatannol], the HIV-1 binding/entry [1] was “significantly decreases”.
For `C[S+]([O-])c1ccc(-c2nc(-c3ccncc3)c(-c3ccc(F)cc3)[nH]2)cc1` (stereo not drawn) [SB203580], the HIV-1 binding/entry [1] was “significant decrease”.
For `COC(=O)CC(NC(=O)C(C)NC(=O)C(NC(=O)OCc1ccccc1)C(C)C)C(=O)CF` (stereo not drawn) [Z-VAD-FMK, Benzyloxycarbonyl-Val-Ala-Asp (OMe) fluoromethylketone] (Cbz-Val-Ala-Asp(OMe)-CH2F; configuration not given here), the cell toxicity [3] was “no toxicity”, the “HIV-1-mediated DCIR expression” value [4] was “partially reduced” and the “DCIR expression in activated CD4+ T cells” value ([5]; cells treated with both H2O2 (30 μM) and Z-VAD-FMK (50 nM, 1 h pretreatment), n=3) was 1.0±0.2%. For the same compound, the “DCIR expression after H2O2 stimulation” value ([5]; pretreatment with Z-VAD-FMK, result in words) was “prevented”.
In the case of `CN[C@@H]1C[C@H]2O[C@@](C)([C@@H]1OC)n1c3ccccc3c3c4c(c5c6ccccc6n2c5c31)C(=O)NC4` [staurosporine], the DCIR expression ([5]; CD4+ T cells treated with inducer, H2O2 20 to 60 μM, result in words) is reported as “promoted”.
For `C(=C\c1ccccc1)/c1ccccc1` [trans-stilbene], the HIV-1 binding/entry [1] was “inability of the inactive analog trans-stilbene to induce a comparable decrease”.
In the case of “TAMRA-EIT(PO3H2)YAEVRFKNEFKS-OH ({TAMRA}-EI[pT]YAEVRFKNEFKS-OH) [ITIM peptide phosphorylated on threonine]”, the virus binding/entry [6] is reported as “decrease” and the “virus replication / infection” value [7] is reported as “decrease”.
“TAMRA-EITY(PO3H2)AEVRFKNES-OH ({TAMRA}-EIT[pY]AEVRFKNES-OH) [ITIM peptide phosphorylated on tyrosine]” was tested, and the virus binding/entry [6] was “decrease” and the “virus replication / infection” value [7] was “decrease”.

Reference: patent publication US9320773B2, “Compounds and therapeutic applications related to inhibition of dendritic cell immunoreceptor (DCIR) activity and signaling events” (priority 2010, dated 2016)
